# According to article PMC12051620, “Molecular basis underlying the specificity of an antagonist AA92593 for mammalian melanopsins” (The Journal of Biological Chemistry, 2025):
# Entries after “also recorded” stand apart in the source; their conditions may differ.
# Tests used:
# Test in all cases: NanoBiT Gq dissociation assay using Gqα/R183Q-LgBiT
# Type in all cases: cell-based
# [1] = molecular target: T1, human melanopsin WT (Homo sapiens, UniProt Q9UHM6); details: 1.67 and 16.7 μM AA92593; COS-1 cells; concentration-dependent
# T1 construct: expressed in transfected cells; host or cells: COS-1
# T1 sequence (Q9UHM6 1-384 limits assumed): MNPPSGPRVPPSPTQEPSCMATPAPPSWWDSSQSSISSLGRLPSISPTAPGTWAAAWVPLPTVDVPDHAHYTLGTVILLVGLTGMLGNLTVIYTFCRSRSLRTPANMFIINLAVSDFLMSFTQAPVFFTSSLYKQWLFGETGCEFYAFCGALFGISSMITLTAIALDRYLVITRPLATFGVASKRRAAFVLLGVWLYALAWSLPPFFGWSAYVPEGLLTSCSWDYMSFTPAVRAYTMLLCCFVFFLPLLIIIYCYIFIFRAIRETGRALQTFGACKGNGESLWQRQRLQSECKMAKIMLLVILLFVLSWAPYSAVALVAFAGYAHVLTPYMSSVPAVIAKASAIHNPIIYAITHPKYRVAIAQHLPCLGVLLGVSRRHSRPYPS
# Source text: (§1) As described above, we have assessed the inhibitory effect of AA92593 using the GsX GloSensor assay. To confirm whether an antagonistic effect could be observed in another experimental system, we used the NanoBiT G protein dissociation assay ([23]). In this assay, Gq activation (dissociation) is detected as a decrease in NanoLuc luminescence from the Lg-BiT fragment inserted with Gqα and the Sm-BiT fragment fused with Gβγ (see “Experimental procedures”) ([23], [24]). If an antagonistic effect is observed in the NanoBiT assay, the light-dependent decrease in luminescence (Gq dissociation) by melanopsin would be reduced in the presence of AA92593. […] A recent study reported that the introduction of a GTPase-deficient substitution, R183Q, on Gqα increased GPCR-induced Gq dissociation signals in a BRET-based biosensor assay, TRUPATH ([25]). […]
# (§2) For GloSensor assay, opsins, GloSensor assay sensor (coded by pGlo-22F), and NanoBiT-tagged G proteins were transiently expressed in COS-1 cells (kindly provided from Dr David Farrens, Oregon Health and Science University) using PEI as described previously ([24], [52]). […] For GFP-fluorescence microscopy, a 35-mm cell culture dish (IWAKI) was transfected with 2 μg melanopsin-GFP plasmid and 8 μg PEI in 400 μl Opti-mem and 1.2 ml D-MEM. […]
# (§3) The transfected COS-1 cells were incubated at 37 °C, 5% CO2 for 1 day, and the medium was aspirated, followed by the addition of 50 μl of HBSS containing 33.3, 3.33, or 0 μM AA92593, 0.5% DMSO, and 10 μM coelenterazine h (Wako). […] After incubation of the cells, luminescence measurement was interrupted, the plate was ejected, and the cells were added 50 μl of HBSS containing 0.2 μM 9-cis-retinal. […] Luminescence was measured using GM-2000 or GM-3510 microplate reader (Promega). Luminescence level of each well was measured every 18 s with integration time of 0.3 s. To illuminate opsins, luminescence measurement was interrupted, the plate was ejected, and the plate was illuminated by white light with CN-160 LED video light (light intensity, ∼9 mW/cm^2) (NEEWER). After illumination, luminescence measurement was resumed. […]
# [2] = molecular target: T2, human melanopsin F94^2.61C/S188^ECL2T/S269^6.52A mutant (Homo sapiens, UniProt Q9UHM6, F127C/S222T/S313A); details: 1.67 and 16.7 μM AA92593; COS-1 cells
# T2 construct: expressed in transfected cells; host or cells: COS-1
# T2 sequence (Q9UHM6 1-384 F127C/S222T/S313A): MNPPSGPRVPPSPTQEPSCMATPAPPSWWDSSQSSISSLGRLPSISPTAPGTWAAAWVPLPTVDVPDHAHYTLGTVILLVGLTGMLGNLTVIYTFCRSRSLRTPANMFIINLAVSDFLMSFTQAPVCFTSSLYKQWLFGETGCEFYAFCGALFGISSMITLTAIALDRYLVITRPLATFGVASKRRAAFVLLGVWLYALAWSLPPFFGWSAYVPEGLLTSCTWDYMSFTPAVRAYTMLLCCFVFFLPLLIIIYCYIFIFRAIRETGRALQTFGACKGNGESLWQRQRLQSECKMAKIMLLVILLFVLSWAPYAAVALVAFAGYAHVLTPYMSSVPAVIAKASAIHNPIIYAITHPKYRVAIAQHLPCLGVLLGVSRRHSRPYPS
# Source text: as §1, §2, §3
# [3] = molecular target: T3, human melanopsin F94^2.61C/S188^ECL2T/W189^ECL2F/S269^6.52A mutant (Homo sapiens, UniProt Q9UHM6, F127C/S222T/S313A/W223F); details: 1.67 and 16.7 μM AA92593; COS-1 cells
# T3 construct: expressed in transfected cells; host or cells: COS-1
# T3 sequence (Q9UHM6 1-384 F127C/S222T/W223F/S313A): as the sequence (Q9UHM6 1-384 F127C/S222T/S313A) above, with W223F counted along it
# Source text: as §1, §2, §3
compound,measurement,setting,value
COc1ccc(S(=O)(=O)N2CCCCC2)cc1C [AA92593],effect on light-dependent decrease in NanoLuc luminescence (Gq dissociation),[1],weakened
same,AA92593-dependent inhibitory effect on Gq activation compared to WT,[2],much reduced; also recorded: almost insensitive
same,sensitivity to AA92593 in Gq dissociation,[3],little sensitivity
